Data reported in article PMC7270110, “Labeled oxytocin administered via the intranasal route reaches the brain in rhesus macaques” (Nature Communications, 2020).
Where “and” joins values, the source holds several entries; their conditions need not be identical. Equal entries are not always repeated.

What was measured:
[1] = CSF concentration of d5OT by LC-MS/MS after IN or IV d5OT; assay type: in vivo, rhesus macaques (Macaca mulatta)
Method: (§1) The six monkeys were dosed once a week, for 4 consecutive weeks, with each DOSE–ROUTE condition of d5OT (40 IU IN, 40 IU IV, 80 IU IN, or 80 IU IV). Each DOSE–ROUTE condition was assigned using a Latin square randomization (Table 4). Sessions were separated by at least 6 days. During each session, CSF (750 µl) and blood (5 ml) samples were drawn immediately prior to (T = 0) and following (T = 60 and 120 min) each administration of d5OT.
(§2) Monkeys were divided into three groups, each with two monkeys; each group received the following in a terminal study at the 5th week: Group 1 (Monkeys ID# 1 and ID# 5) received 40 IU of d5OT IN, Group 2 received 80 IU of d5OT IN (Monkeys ID# 2 and ID# 4) and Group 3 received 80 IU of d5OT IV (Monkeys ID# 3 and ID# 6). Animals were perfused on average, 140 ± 7 (mean ± SD) min after d5OT administration (range = 135–149 min) (Table 4). Plasma and CSF were drawn just before administration of d5OT, at the midpoint between d5OT administration and perfusion (~60 min post-d5OT administration), and just before perfusion.
(§3) Chemicals: An unlabeled standard for d0OT and deuterated standard for d5OT were purchased from Sigma-Aldrich (St. Louis, MO); d10OT was purchased for use as an internal standard through a custom order from Cayman Chemical (Ann Arbor, MI). All other reagents were commercially available, and we purchased LC or MS grade chemicals when available. Plasma and CSF sample preparation for LC–MS/MS analysis. CSF and plasma samples were collected as described above. Using 15 ml polystyrene tubes, 1.0 ml of each standard, quality control (QC), or plasma sample was combined with 30 µl of internal standard mixture (34 ng/ml d10OT in 50:50 acetonitrile (ACN):water, v–v) and incubated for 20 min on ice. Volumes used for CSF samples ranged from 0.4 to 1.0 ml, depending on sample availability. CSF samples <1.0 ml were brought to a final volume of 1.0 ml using charcoal-stripped serum, prior to addition of internal standard. To each tube, 2 ml of ice-cold ACN was added, vortexed thoroughly, and centrifuged at 2500 × g for 10 min at 4 °C. The supernatants were transferred to new 13 mm × 100 mm polypropylene tubes and evaporated in a 37 °C water bath, under forced air, to a volume of <1 ml. We then added 5.5 ml of 0.2 M ammonium acetate (pH 3.0) in water, capped the tubes and mixed by inversion, before centrifugation at 2500 × g for 10 min at 4 °C.
Solid-phase extraction (SPE) columns (Strata-X-Drug B, 60 mg/6 ml, Phenomenex, Torrance, CA) were conditioned prior to use by adding 2 ml of methanol, followed by 2 ml of water, and 2 ml of 0.2 M ammonium acetate (pH 3.0) in water; each was allowed to flow through by gravity before the next was added. The supernatants from the previous step were then added to SPE columns (one supernatant per column) by pouring. Columns were washed with 2 ml ammonium acetate (pH 3.0) in water, followed by 2 ml water and 2 ml ACN, and dried for 5 min in a vacuum manifold (5 in Hg; Millipore, Burlington, MA). OT was eluted with 2 × 1 ml 0.2% ammonium hydroxide in methanol into 12 mm × 75 mm polypropylene tubes and evaporated to dryness under forced air in a 37 °C water bath. […] After a 15 min incubation at 4 °C, plates were filtered into microtiter plates (Shimadzu, Kyoto, Japan) using a positive pressure manifold (8 min at 5 psi, followed by 15 s at 15 psi; Biotage, Uppsala, Sweden), and analyzed. […]

[2] = 60 min, previous study, cited from earlier work
Method: This study has several limitations. The limit of quantification (100 pg/ml) and between subject variability for d5OT precluded comparisons of CSF concentrations of d5OT across routes of administration (IN vs. IV), or across time (60 vs. 120 min), for a given route. […] For example, mean plasma concentration of d5OT at 60 min in the IV condition was 1992 ± 476 pg/ml in the present study and 3306 ± 1162 pg/ml in the previous st ...

[3] = CSF concentration of endogenous d0OT by LC-MS/MS; assay type: in vivo, rhesus macaques (Macaca mulatta)
Method: as §1, §2
as §3, with “We then added 5.5 ml of 0.2 M ammonium acetate (pH 3.0) in water, capped the tubes and mixed by inversion, before centrifugation at 2500 × g for 10 min at 4 °C.” left out
Solid-phase extraction (SPE) columns (Strata-X-Drug B, 60 mg/6 ml, Phenomenex, Torrance, CA) were conditioned prior to use by adding 2 ml of methanol, followed by 2 ml of water, and 2 ml of 0.2 M ammonium acetate (pH 3.0) in water; each was allowed to flow through by gravity before the next was added. […] After a 15 min incubation at 4 °C, plates were filtered into microtiter plates (Shimadzu, Kyoto, Japan) using a positive pressure manifold (8 min at 5 psi, followed by 15 s at 15 psi; Biotage, Uppsala, Sweden), and analyzed. […]

[4] = nonhuman primate, cited from earlier work
Method: […] For IV administration, 1 ml was administered via a peripheral IV catheter. For IN administration, an IN Mucosal Atomization Device [MAD, Teleflex Medical, Research Triangle Park, NC] was used. This same device was used in our previous nonhuman primate study. […] Of not ...

SMILES: CC[C@H](C)[C@@H]1NC(=O)[C@H](Cc2ccc(O)cc2)NC(=O)[C@@H](N)CSSC[C@@H](C(=O)N2CCC[C@H]2C(=O)N[C@@H](CC(C)C)C(=O)NCC(N)=O)NC(=O)[C@H](CC(N)=O)NC(=O)[C@H](CCC(N)=O)NC1=O [d5OT]
- d5OT in CSF ([1]; 120 min after IV administration (40 and 80 IU), LC-MS/MS, MDL 38 pg/ml): no d5OT detected
- d5OT in CSF ([1]; after IN administration of either dose (40 or 80 IU), any timepoint, LC-MS/MS, MDL 38 pg/ml): no d5OT detected
- d5OT in CSF ([1]; just prior to necropsy, after 80 IU IV, single monkey, LOQ 100 pg/ml): below the limit of quantification
- d5OT in CSF ([1]; timepoint 60 min after 40 IU IV, N = 6, LC-MS/MS, LOQ 100 pg/ml, MDL 38 pg/ml): detected
- d5OT in CSF ([1]; timepoint 60 min after 80 IU IV, N = 6, LC-MS/MS, LOQ 100 pg/ml, MDL 38 pg/ml): detected
- Plasma d5OT ([2]; 80 IU IN condition): 615 ± 474 pg/mL
- Mean plasma concentration of d5OT ([2]; IV condition): 3.306 ± 1.162 ng/mL

SMILES: CC[C@H](C)[C@@H]1NC(=O)[C@H](Cc2ccc(O)cc2)NC(=O)[C@@H](N)CSSC[C@@H](C(=O)N2CCC[C@H]2C(=O)N[C@@H](CC(C)C)C(=O)NCC(N)=O)NC(=O)[C@H](CC(N)=O)NC(=O)[C@H](CCC(N)=O)NC1=O [OT, oxytocin]
- CSF concentrations of d0OT at necropsy ([3]; 40 IU IN condition, monkey #1): not quantified
- CSF concentrations of d0OT at necropsy ([3]; 40 IU IN condition, one monkey): 12 pg/mL
- CSF concentrations of d0OT at necropsy ([3]; 80 IU IN condition, two monkeys, listed as d0OT): 16 pg/mL and 10 pg/mL
- CSF concentrations of d0OT at necropsy ([3]; 80 IU IV condition, two monkeys, listed as d0OT): 16 pg/mL and 14 pg/mL
- Concentration of CSF OT ([4]; IN administration of unlabeled OT with a different IN device): no increased concentration
- CSF OT concentrations ([4]; OT 48 IU, MAD spray and nebulizer): significant elevations
